# Experimental data: patent US12167995B2, “[((1R,2S,5R)-2-isopropyl-5-methyl-cyclohexanecarbonyl)-amino]-acetic acid isopropyl ester for treatment of chronic cough” (AXALBION SA, priority 2019, dated 2024)
# Entries after “also recorded” stand apart in the source; their conditions may differ.
# How the values were obtained:
# hTRPA1 = target: T1, hTRPA1 (Homo sapiens, UniProt O75762); experiment: FLIPR calcium assay, selectivity against hTRPA1 (expressed in CHO); assay type: cell-based
# T1 construct: expressed in transfected cells; host or cells: CHO
# T1 sequence (O75762 whole entry): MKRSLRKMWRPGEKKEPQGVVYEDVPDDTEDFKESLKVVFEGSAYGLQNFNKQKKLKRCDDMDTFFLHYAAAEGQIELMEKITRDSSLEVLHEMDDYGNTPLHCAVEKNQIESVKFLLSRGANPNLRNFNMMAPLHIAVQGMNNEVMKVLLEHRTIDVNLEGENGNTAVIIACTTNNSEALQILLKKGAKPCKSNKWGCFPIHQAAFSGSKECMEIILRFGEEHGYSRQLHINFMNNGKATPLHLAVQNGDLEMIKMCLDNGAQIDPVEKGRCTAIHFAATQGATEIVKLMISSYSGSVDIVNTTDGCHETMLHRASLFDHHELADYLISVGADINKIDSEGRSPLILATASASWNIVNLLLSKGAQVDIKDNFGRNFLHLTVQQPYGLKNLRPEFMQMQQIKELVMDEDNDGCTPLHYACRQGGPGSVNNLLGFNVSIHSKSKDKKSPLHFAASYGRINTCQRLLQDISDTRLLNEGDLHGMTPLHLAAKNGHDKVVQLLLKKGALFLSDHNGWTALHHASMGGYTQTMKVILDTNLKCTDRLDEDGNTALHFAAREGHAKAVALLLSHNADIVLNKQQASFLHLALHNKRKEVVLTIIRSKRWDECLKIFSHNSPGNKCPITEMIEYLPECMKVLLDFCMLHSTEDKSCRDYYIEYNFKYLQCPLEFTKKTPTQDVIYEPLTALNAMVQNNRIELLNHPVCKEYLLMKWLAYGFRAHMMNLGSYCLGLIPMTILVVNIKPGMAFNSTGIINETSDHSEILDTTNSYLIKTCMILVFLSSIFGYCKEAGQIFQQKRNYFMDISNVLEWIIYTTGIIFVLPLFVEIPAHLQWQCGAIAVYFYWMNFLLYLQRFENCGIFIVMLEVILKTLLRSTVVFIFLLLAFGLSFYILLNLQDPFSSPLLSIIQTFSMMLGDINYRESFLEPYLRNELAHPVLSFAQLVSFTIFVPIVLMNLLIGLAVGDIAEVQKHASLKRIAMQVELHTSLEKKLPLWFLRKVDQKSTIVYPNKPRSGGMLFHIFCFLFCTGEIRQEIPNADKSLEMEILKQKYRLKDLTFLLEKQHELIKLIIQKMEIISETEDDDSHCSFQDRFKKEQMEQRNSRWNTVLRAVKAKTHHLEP
# Procedure: Similarly, selectivity against hTRPA1 (expressed in CHO) and hTRPV1 (expressed in HEK-293) was assessed using FLIPR® calcium assay (at 100 μM, i.e., 10-fold more than the concentration for maximal response; see FIG. 12). […] For the agonist effect assessment, the effect of AX-8 was evaluated in the absence of the positive control agonist. The maximal signal elicited in the presence of the respective agonist (300 μM mustard oil for TRPA1; 3 μM capsaicin for TRPV1) was set to 100% activation and the signal in the presence of the vehicle control (HB-PS) was set to 0% activation. For the antagonist effect assessment, the channels were activated with the respective positive control agonist (100 μM mustard oil for TRPA1; 0.1 μM capsaicin for TRPV1). The effects of AX-8 to inhibit the signal was examined after agonist stimulation and compared to the respective positive control antagonist (3 μM ruthenium red). For each channel, the signal elicited in the presence of the respective positive control agonist was set to 100 (0% inhibition) and the signal in the presence of the respective positive control antagonist was set to 0 (100% inhibition).
# [1] = test system: refractory chronic cough (RCC); experiment: Clinical Trial 2: Global Rating of Change Scale (GRCS); assay type: in vivo, human
# Source text: The GRCS was used by subjects to assess their overall status for the specified periods (the 4-hour period following dose; and the 24-hour period following dose). It consisted of a […] scale ranging from ‘a very great deal better’ to ‘a very great deal worse’.
# [2] = Clinical Trial 2: safety and tolerability in RCC patients; assay type: in vivo, human; conditions: single 5 mg ODT
# Source text: Safety assessments consisted of monitoring and recording protocol-defined adverse events (AEs) and serious adverse events (SAEs); vital signs; physical examinations; clinical laboratory assessments; electrocardiograms (ECGs); and other protocol-specified tests that were deemed critical to the safety evaluation of the study drug.
compound,measurement,setting,value
"CC(C)OC(=O)CNC(=O)[C@@H]1C[C@H](C)CC[C@H]1C(C)C [AX-8, [((1R,2S,5R)-2-isopropyl-5-methyl-cyclohexanecarbonyl)-amino]-acetic acid isopropyl ester]",antagonistic interaction with TRPA1,"hTRPA1; at 100 μM, channel activated with 100 μM mustard oil, control antagonist 3 μM ruthenium red",no agonistic or antagonistic interactions
same,agonistic activity on hTRPA1,"hTRPA1; concentrations ≤100 μM, % of mustard oil maximal response, n=4",no agonistic or antagonistic interactions; also recorded: no significant agonistic activity on hTRPA1
same,"GRCS Cough Frequency: patients rating about the same, n (%)","[1]; 4 hours after treatment, n=12",7 (58.3%)
same,"GRCS Cough Frequency: patients rating better, n (%)","[1]; 4 hours after treatment, n=12",4 (33.3%)
same,"GRCS Cough Frequency: patients rating worse, n (%)","[1]; 4 hours after treatment, n=12",1 (8.3%)
same,"GRCS Cough Severity: patients rating about the same, n (%)","[1]; 4 hours after treatment, n=12",6 (50%)
same,"GRCS Cough Severity: patients rating better, n (%)","[1]; 4 hours after treatment, n=12",5 (41.7%)
same,"GRCS Cough Severity: patients rating worse, n (%)","[1]; 4 hours after treatment, n=12",1 (8.3%)
same,"GRCS Cough Frequency: patients rating about the same, n (%)","[1]; 24 hours after treatment, n=11",6 (54.5%)
same,"GRCS Cough Frequency: patients rating better, n (%)","[1]; 24 hours after treatment, n=11",4 (36.4%)
same,"GRCS Cough Frequency: patients rating worse, n (%)","[1]; 24 hours after treatment, n=11",1 (9.1%)
same,"GRCS Cough Severity: patients rating about the same, n (%)","[1]; 24 hours after treatment, n=11",6 (54.5%)
same,"GRCS Cough Severity: patients rating better, n (%)","[1]; 24 hours after treatment, n=11",4 (36.4%)
same,"GRCS Cough Severity: patients rating worse, n (%)","[1]; 24 hours after treatment, n=11",1 (9.1%)
same,compound-related adverse effects,[2],No compound-related adverse effects were observed
